Experimental data taken from patent US9302991B2, “Arylamide derivatives as TTX-S blockers” (RaQualia Pharma Inc., priority 2010, dated 2016).

Target: T1, human Nav1.7 channels (Homo sapiens, UniProt Q15858)
T1 construct: expressed in transfected cells; host or cells: CHO
Test: FRET assay, human Nav1.7 (EFS on FDSS)
Format: cell-based
Conditions: CHO cells expressing human Nav1.7, read-out: IC50 against Nav1.7
How it was run: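 CHO cells stably expressing the channel, loaded with CC2-DMPE (10 µM) then DiSBAC2(3) (15 µM) plus VABSC-1, in HEPES-buffered saline pH 7.4 at room temperature. Electrical field stimulation on FDSS; FRET ratio at 440 nm fitted for IC50.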

T1 sequence (Q15858 whole entry): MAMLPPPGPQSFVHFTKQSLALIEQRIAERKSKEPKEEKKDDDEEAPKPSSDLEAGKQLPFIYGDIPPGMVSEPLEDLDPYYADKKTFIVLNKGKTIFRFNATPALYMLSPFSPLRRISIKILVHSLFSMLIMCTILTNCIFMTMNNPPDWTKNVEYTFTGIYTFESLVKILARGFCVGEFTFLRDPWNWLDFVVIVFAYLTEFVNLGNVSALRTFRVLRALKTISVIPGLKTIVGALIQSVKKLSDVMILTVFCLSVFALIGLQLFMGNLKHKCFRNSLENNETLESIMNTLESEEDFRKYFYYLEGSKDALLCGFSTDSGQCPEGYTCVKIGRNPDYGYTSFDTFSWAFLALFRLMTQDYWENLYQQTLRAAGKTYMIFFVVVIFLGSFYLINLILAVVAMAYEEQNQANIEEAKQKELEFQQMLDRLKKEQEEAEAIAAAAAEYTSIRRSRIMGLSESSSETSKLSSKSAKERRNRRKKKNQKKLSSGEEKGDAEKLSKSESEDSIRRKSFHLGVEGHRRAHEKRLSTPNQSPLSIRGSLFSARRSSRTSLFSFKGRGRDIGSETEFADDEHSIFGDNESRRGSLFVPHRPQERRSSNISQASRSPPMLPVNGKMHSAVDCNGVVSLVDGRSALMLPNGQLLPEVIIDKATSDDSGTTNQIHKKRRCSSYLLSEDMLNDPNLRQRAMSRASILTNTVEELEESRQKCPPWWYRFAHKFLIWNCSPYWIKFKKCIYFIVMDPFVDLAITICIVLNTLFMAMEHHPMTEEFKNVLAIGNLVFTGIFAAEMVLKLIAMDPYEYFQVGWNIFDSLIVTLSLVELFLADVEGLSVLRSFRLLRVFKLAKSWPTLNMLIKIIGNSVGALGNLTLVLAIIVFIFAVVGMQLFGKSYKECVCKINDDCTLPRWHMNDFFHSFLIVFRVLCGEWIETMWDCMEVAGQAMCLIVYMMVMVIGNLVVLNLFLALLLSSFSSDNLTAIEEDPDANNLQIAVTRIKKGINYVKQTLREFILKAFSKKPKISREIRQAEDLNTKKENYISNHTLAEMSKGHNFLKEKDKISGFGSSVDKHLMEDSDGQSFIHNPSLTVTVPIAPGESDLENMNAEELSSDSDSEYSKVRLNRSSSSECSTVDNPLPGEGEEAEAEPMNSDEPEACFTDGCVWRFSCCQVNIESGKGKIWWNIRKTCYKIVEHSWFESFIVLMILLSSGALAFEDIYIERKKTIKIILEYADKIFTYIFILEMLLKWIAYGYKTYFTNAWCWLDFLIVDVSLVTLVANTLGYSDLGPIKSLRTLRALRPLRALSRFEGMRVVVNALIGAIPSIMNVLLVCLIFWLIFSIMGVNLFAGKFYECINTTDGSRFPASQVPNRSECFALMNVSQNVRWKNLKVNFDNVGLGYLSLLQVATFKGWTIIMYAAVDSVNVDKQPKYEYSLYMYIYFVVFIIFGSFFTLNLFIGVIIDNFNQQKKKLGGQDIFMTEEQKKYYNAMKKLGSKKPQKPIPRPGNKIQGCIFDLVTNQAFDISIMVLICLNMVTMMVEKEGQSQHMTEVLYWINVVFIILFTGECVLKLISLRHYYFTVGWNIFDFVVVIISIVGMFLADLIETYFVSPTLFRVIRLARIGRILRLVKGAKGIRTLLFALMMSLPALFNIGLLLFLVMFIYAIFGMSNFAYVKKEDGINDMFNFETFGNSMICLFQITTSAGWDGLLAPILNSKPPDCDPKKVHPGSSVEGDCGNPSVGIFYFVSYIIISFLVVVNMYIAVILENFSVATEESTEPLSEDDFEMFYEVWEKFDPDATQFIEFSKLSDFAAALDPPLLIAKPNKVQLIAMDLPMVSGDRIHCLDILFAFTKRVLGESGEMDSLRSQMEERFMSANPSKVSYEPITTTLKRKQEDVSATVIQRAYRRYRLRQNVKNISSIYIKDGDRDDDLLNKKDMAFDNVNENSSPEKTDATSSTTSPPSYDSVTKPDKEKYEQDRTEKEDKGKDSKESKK

SMILES	IC50
CC(=O)Nc1cc(C(=O)NC(C)c2cccc(OC(F)(F)F)c2)cc(C)n1 (single isomer, unassigned) [Example 420, 2-acetamido-6-methyl-N-(1-(3-(trifluoromethoxy)phenyl)ethyl)isonicotinamide]	< 1000 nM
CC(=O)Nc1cc(C(=O)NC(C)c2cccc(OCC(F)(F)F)c2)ccn1 (single isomer, unassigned) [Example 84, 2-acetamido-N-(1-(3-(2,2,2-trifluoroethoxy)phenyl)ethyl)isonicotinamide]	< 1000 nM
CC(C)C(=O)Nc1cc(C(=O)NC(C)c2cnc(OCC(F)(F)F)c(Cl)c2)ccn1 (single isomer, unassigned) [Example 522, N-(1-(5-chloro-6-(2,2,2-trifluoroethoxy)pyridin-3-yl)ethyl)-2-isobutyramidoisonicotinamide]	< 1000 nM
COc1nc(OCC(F)(F)F)ccc1CNC(=O)c1cc(C)nc(NC(=O)C(C)C)n1 [Example 374, 2-isobutyramido-N-((2-methoxy-6-(2,2,2-trifluoroethoxy)pyridin-3-yl)methyl)-6-methylpyrimidine-4-carboxamide]	< 1000 nM
COc1nc(OCC(F)(F)F)ccc1CNC(=O)c1cc(C)nc(NC(=O)C2CC2)n1 [Example 181, 2-(cyclopropanecarboxamido)-N-((2-methoxy-6-(2,2,2-trifluoroethoxy)pyridin-3-yl)methyl)-6-methylpyrimidine-4-carboxamide]	< 1000 nM
Cc1cc(C(=O)NCc2ccc(OCC(F)(F)F)nc2C)cc(NC(=O)C(C)C)n1 [Example 493, 2-isobutyramido-6-methyl-N-((2-methyl-6-(2,2,2-trifluoroethoxy)pyridin-3-yl)methyl)isonicotinamide]	< 1000 nM
COc1cc(CNC(=O)c2cc(C)nc(NC(=O)C3CC3)n2)cnc1OCC(F)(F)F [Example 442, 2-(cyclopropanecarboxamido)-N-((5-methoxy-6-(2,2,2-trifluoroethoxy)pyridin-3-yl)methyl)-6-methylpyrimidine-4-carboxamide]	< 1000 nM
CCC(=O)Nc1cc(C(=O)NC(C)c2ccc(OCC(C)(F)F)nc2)ccn1 (single isomer, unassigned) [Example 781, N-(1-(6-(2,2-difluoropropoxy)pyridin-3-yl)ethyl)-2-propionamidoisonicotinamide]	< 1000 nM
CC(C)C(=O)Nc1cc(C(=O)NC(C)c2cccc(OC(F)(F)F)c2)ccn1 (single isomer, unassigned) [Example 418, 2-isobutyramido-N-(1-(3-(trifluoromethoxy)phenyl)ethyl)isonicotinamide]	< 1000 nM
Cc1cc(C(=O)NC(C)c2cnc(OCC(F)(F)F)c(Cl)c2)cc(NC(=O)C(C)C)n1 (single isomer, unassigned) [Example 521, N-(1-(5-chloro-6-(2,2,2-trifluoroethoxy)pyridin-3-yl)ethyl)-2-isobutyramido-6-methylisonicotinamide]	< 1000 nM
CC(=O)Nc1cc(C(=O)NCc2ccc(OCC(F)(F)F)nc2)cc(C)n1 [Example 237, 2-acetamido-6-methyl-N-((6-(2,2,2-trifluoroethoxy)pyridin-3-yl)methyl)isonicotinamide]	< 1000 nM
Cc1cc(C(=O)NCc2cnc(OCC(F)F)c(Cl)c2)cc(NC(=O)C(C)C)n1 [Example 620, N-((5-chloro-6-(2,2-difluoroethoxy)pyridin-3-yl)methyl)-2-isobutyramido-6-methylisonicotinamide]	< 1000 nM
CCC(=O)Nc1cc(C(=O)NC(C)c2ccc(OCC(F)(F)F)cc2Cl)ccn1 (single isomer, unassigned) [Example 797, N-(1-(2-chloro-4-(2,2,2-trifluoroethoxy)phenyl)ethyl)-2-propionamidoisonicotinamide]	< 1000 nM
O=C(NCc1cccc(OCC(F)(F)F)n1)c1cccc2[nH]c(=O)[nH]c12 [Example 57, 2-oxo-N-((6-(2,2,2-trifluoroethoxy)pyridin-2-yl)methyl)-2,3-dihydro-1H-benzo[d]imidazole-4-carboxamide]	< 1000 nM
Cc1cc(C(=O)NCc2cnc(OCC(F)(F)F)cc2C)nc(NC(=O)C(C)C)n1 [Example 353, 2-isobutyramido-6-methyl-N-((4-methyl-6-(2,2,2-trifluoroethoxy)pyridin-3-yl)methyl)pyrimidine-4-carboxamide]	< 1000 nM
COc1cc(C(C)NC(=O)c2ccnc(NC(=O)C3CC3)n2)cnc1OCC(F)(F)F (single isomer, unassigned) [Example 400, 2-(cyclopropanecarboxamido)-N-(1-(5-methoxy-6-(2,2,2-trifluoroethoxy)pyridin-3-yl)ethyl)pyrimidine-4-carboxamide]	< 1000 nM

Results, then the compound that gave them:

IC50	SMILES
< 1000 nM	Cc1cc(C(=O)NCc2cnc(OCC(F)(F)F)c(Br)c2)cc(NC(=O)C(C)C)n1 [Example 901, N-((5-bromo-6-(2,2,2-trifluoroethoxy)pyridin-3-yl)methyl)-2-isobutyramido-6-methylisonicotinamide]
< 1000 nM	CC(NC(=O)c1ccnc(NC(=O)C2CC2)n1)c1ccc(OCC(F)(F)F)cc1Cl (single isomer, unassigned) [Example 802, N-(1-(2-chloro-4-(2,2,2-trifluoroethoxy)phenyl)ethyl)-2-(cyclopropanecarboxamido)pyrimidine-4-carboxamide]
< 1000 nM	CCC(=O)Nc1cc(C(=O)NC(C)c2ccc(OCC(F)F)cc2Cl)ccn1 (single isomer, unassigned) [Example 1116, N-(1-(2-chloro-4-(2,2-difluoroethoxy)phenyl)ethyl)-2-propionamidoisonicotinamide]
< 1000 nM	Cc1cc(C(=O)NCc2ccc(OCC(F)F)c(Cl)c2)cc(NC(=O)C(C)C)n1 [Example 1003, N-(3-chloro-4-(2,2-difluoroethoxy)benzyl)-2-isobutyramido-6-methylisonicotinamide]
< 1000 nM	Cc1cc(C(=O)NC(C)c2cc(C)c(OCC(F)F)c(Cl)c2)cc(NC(=O)C(C)C)n1 (single isomer, unassigned) [Example 1212, N-(1-(3-chloro-4-(2,2-difluoroethoxy)-5-methylphenyl)ethyl)-2-isobutyramido-6-methylisonicotinamide]
< 1000 nM	Cc1cc(C(=O)NC(C)c2cnc(OCC(F)F)c(Cl)c2)cc(NC(=O)C2CC2)n1 (single isomer, unassigned) [Example 1063, N-(1-(5-chloro-6-(2,2-difluoroethoxy)pyridin-3-yl)ethyl)-2-(cyclopropanecarboxamido)-6-methylisonicotinamide]
< 1000 nM	COc1cc(CNC(=O)c2ccnc(NC(=O)C3CC3)c2)ccc1OCC(F)(F)F [Example 1102, 2-(cyclopropanecarboxamido)-N-(3-methoxy-4-(2,2,2-trifluoroethoxy)benzyl)isonicotinamide]
< 1000 nM	COc1cc(CNC(=O)c2cc(C)nc(NC(=O)C(C)C)c2)ccc1OCC(F)(F)F [Example 885, 2-isobutyramido-N-(3-methoxy-4-(2,2,2-trifluoroethoxy)benzyl)-6-methylisonicotinamide]
< 1000 nM	Cc1cc(C(=O)NC(C)c2ccc(OCC(F)(F)F)cc2Cl)cc(NC(=O)C(C)C)n1 (single isomer, unassigned) [Example 801, N-(1-(2-chloro-4-(2,2,2-trifluoroethoxy)phenyl)ethyl)-2-isobutyramido-6-methylisonicotinamide]
